Experiments:
[1] = Saturation concentration of genistein in acetone; format: physicochemical; conditions: room temperature and atmospheric pressure
Protocol: As used herein, the concentration of genistein means the concentration of the genistein dissolved in an organic solvent such as acetone at room temperature and atmospheric pressure. The saturation point of genistein concentration dissolved in acetone at room temperature and atmospheric pressure is 4 mg/mL.

[2] = Dissolution rate study in a dissolution medium; format: physicochemical; conditions: over a period of 20 minutes
Protocol: FIG. 9 is dissolution profiles of raw genistein versus PCA processed genistein under different pressures of 70 bar (Run 6) and 100 bar (Run 4).
46% weight percentage of the processed genistein from Run 4 (100 bar) is dissolved in a dissolution medium while only 23% of the unprocessed genistein is dissolved over a period of 20 minutes. This 2-fold increase in dissolution rate can be credited to the reduction in particle size resulting in an increase in total surface area. However, the dissolution rate for particles which are obtained at 70 bar with smaller particles (Run 6) is slower than that of particles obtained at 100 bar (Run 4).

SMILES: O=c1c(-c2ccc(O)cc2)coc2cc(O)cc(O)c12 [unprocessed genistein, genistein]
- saturation point of genistein concentration dissolved in acetone [1]: 4 mg/mL
- weight percentage dissolved in a dissolution medium [2]: 23%

— patent publication US9259396B2, “Method of preparing soy isoflavone nanoparticles by precipitation with compressed antisolvent (PCA) using a supercritical fluid” (Nano and Advanced Materials Institute Limited, priority 2012, dated 2016)
